# Measured values published in patent publication EP4737450A1 (Longwood Pharmaceuticals (Hangzhou) Co., Ltd, priority 2023, dated 2025).
# Where two headings read alike, the source gives them in different places.
# Legend:
# FXIa = FXIa (Homo sapiens, UniProt P03951); assay: Inhibitory activity against FXIa in vitro (biochemical assay)
# Procedure: Test Example 1. Test of the inhibitory activities of the compounds of the present invention against plasma kallikrein (PKa), KLK1 and FXIa in vitro.
# PKK (R & D, Cat # 2497-SE) and Pro-Phe-Arg-AMC (Nanjing Peptide, Cat # NJP23946) solutions were prepared in reaction buffer (50 mM Tris-HCl, pH 7.5, 250 mM NaCl). The final concentrations of enzyme protein and Pro-Phe-Arg-AMC in the reaction mixture were 10 nM and 60 µM, respectively. The starting concentration of the positive reference substance Avoralstat was 100 nM, 3-fold dilution, 10 + 0 dose. 0.05 µL of compound in 100% DMSO was delivered to a 384-well plate by an acoustic liquid delivery technique (Echo665; nanoliter range). Compound duplex test. 5 µL of 2 × enzyme solution was transferred to a 384 reaction plate and centrifuged at 1000 rpm for 1 minute, incubated at 25°C for 15 minutes; 5 µL of 2 × Pro-Phe-Arg-AMC solution was transferred to a 384 reaction plate, centrifuged at 1000 rpm for 1 minute, incubated at 25°C for 3 hours. […] IC50 values and nonlinear regression curve fitting were obtained using GraphPad Prism software.
# plasma kallikrein (PKa) = biological target: T1, plasma kallikrein (PKa) (Homo sapiens, UniProt P03952); assay: Inhibitory activity against plasma kallikrein in vitro (fluorescence intensity enzyme assay, Pro-Phe-Arg-AMC substrate); assay type: biochemical; conditions: Pro-Phe-Arg-AMC substrate
# T1 construct: purchased R & D 2497-SE
# Outline: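 Fluorescence intensity enzyme assay with 10 nM enzyme and 60 µM Pro-Phe-Arg-AMC (final concentrations). Compounds in DMSO, tested in duplicate over a dose series. IC50 from nonlinear regression curve fitting.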
# KLK1 = KLK1 (Homo sapiens, UniProt P06870); assay: Inhibitory activity against KLK1 in vitro (biochemical assay)
# Excerpt: Test Example 1. Test of the inhibitory activities of the compounds of the present invention against plasma kallikrein (PKa), KLK1 and FXIa in vitro. […]
# [1] = plasma kallikrein enzyme assay, read-out: PKa IC50
# [2] = PKa IC50, plasma kallikrein enzyme assay
# T1 sequence (P03952 391-638 limits assumed): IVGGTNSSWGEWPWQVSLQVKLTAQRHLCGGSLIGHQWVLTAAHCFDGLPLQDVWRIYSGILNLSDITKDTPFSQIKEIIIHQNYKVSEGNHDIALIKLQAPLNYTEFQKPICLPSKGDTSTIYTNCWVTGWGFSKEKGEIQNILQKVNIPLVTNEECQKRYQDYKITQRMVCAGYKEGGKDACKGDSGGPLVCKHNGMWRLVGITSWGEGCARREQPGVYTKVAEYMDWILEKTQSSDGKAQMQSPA
# T1 sequence (P03952 20-390 partner limits assumed): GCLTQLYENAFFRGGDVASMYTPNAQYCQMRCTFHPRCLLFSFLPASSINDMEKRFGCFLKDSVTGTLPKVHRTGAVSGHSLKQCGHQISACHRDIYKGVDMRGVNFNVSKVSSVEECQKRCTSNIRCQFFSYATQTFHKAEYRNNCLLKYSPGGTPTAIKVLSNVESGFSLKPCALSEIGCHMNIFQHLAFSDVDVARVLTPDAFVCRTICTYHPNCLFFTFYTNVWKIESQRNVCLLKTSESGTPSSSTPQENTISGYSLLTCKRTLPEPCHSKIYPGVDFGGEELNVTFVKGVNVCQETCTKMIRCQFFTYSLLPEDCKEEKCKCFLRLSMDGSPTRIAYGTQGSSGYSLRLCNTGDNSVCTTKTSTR
# Chain of FXIa (P03951 388-625 limits assumed): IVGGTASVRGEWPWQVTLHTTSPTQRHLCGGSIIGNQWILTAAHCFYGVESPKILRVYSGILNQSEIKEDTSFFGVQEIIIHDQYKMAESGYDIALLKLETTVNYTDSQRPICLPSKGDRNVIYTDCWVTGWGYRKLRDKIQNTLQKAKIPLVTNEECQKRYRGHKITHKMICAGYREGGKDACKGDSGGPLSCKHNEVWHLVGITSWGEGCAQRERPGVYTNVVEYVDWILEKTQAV
# Chain of FXIa (P03951 19-387 partner limits assumed): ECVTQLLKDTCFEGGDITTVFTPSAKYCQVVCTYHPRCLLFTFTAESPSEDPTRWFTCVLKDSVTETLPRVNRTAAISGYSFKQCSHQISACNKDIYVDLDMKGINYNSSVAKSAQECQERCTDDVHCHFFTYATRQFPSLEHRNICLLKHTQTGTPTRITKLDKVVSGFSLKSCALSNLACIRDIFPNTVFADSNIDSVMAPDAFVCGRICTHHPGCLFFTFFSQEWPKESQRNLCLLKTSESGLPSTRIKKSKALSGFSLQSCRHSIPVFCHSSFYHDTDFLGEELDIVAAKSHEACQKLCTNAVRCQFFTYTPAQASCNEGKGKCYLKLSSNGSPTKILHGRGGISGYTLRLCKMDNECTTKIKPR
# Chain of KLK1 (P06870 25-262, species assumed): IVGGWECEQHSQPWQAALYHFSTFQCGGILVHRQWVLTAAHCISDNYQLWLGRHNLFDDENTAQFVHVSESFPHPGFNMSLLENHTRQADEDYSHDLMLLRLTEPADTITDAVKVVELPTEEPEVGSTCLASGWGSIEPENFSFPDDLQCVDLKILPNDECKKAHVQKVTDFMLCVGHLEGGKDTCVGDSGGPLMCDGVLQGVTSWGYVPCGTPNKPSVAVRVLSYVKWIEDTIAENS
SMILES,IC50 (FXIa; values given in µM),IC50 (plasma kallikrein (PKa); [1]),IC50 (KLK1; values given in µM),IC50 (FXIa; values in nM),IC50 (KLK1; values in nM),IC50 (plasma kallikrein (PKa); [2])
CCn1cnc2c1CC[C@H]2NC(=O)c1cn(Cc2ccc(Cn3ccccc3=O)cc2)nc1COC [Compound 130],> 10 µM,1.09 nM,> 10 µM,–,–,–
Cn1cc(F)c2cnc(CNC(=O)c3cnn(Cc4ccc(Cn5ccccc5=O)cc4)c3)c(F)c21 [Compound 370],> 10 µM,10.2 nM,> 10 µM,–,–,–
Cc1cc2nccn2c(C)c1CNC(=O)c1cn(Cc2ccc(N3CC4C(C3)C4(F)F)cc2C#N)nc1C(F)(F)F (stereo not drawn) [Compound 204],> 10 µM,1.23 nM,> 10 µM,–,–,–
Cc1cc(N)nc(C)c1CNC(=O)c1noc(Cc2ccc(Cn3ccccc3=O)cc2)n1 [Compound 48],> 10 µM,0.38 nM,> 10 µM,–,–,–
N=C(N)c1ccc(CNC(=O)c2cnn(Cc3cnc(N4CC5C(C4)C5(F)F)c(F)c3)c2)cc1 (stereo not drawn) [Compound 374],> 10 µM,0.06 nM,> 10 µM,–,–,–
N#Cc1cc(N2CC3C(C2)C3(F)F)ccc1Cn1cc(C(=O)NCc2ccc(C(=N)N)cc2)cn1 (stereo not drawn) [Compound 8],–,1.22 nM,–,< 0.5 µM,< 0.5 µM,–
COCc1nn(Cc2ccc(Cn3ccccc3=O)cc2)cc1C(=O)NCc1ccc(C(=N)N)nc1 [Compound 361],> 10 µM,0.09 nM,> 10 µM,–,–,–
CCOc1cc(Cn2cc(C(=O)NCc3ccc(C(=N)N)cc3)cn2)ccc1CC1CC1 [Compound 264],> 10 µM,0.82 nM,> 10 µM,–,–,–
Cc1cc2nccn2c(C)c1CNC(=O)c1nc(Cc2ccc(Cn3ccccc3=O)cc2)ns1 [Compound 137],> 10 µM,0.9 nM,> 10 µM,–,–,–
COCc1nn(Cc2c(F)c(F)c(Cn3ccccc3=O)c(F)c2F)cc1C(=O)NCc1c(C)cc(N)nc1C [Compound 28],> 10 µM,2.33 nM,–,–,> 0.5 µM,–
N=C(N)c1ccc(CNC(=O)c2cnn(Cc3ccc(OC4CC4)c(C(F)(F)F)c3)c2)cc1 [Compound 379],> 10 µM,–,> 10 µM,–,–,0.97 nM
COCc1nn(Cc2ccc(Cn3ccccc3=O)cc2)cc1C(=O)NCc1ncc2c(c1F)N(C)CC2 [Compound 391],> 10 µM,1.4 nM,> 10 µM,–,–,–
O=C(NCc1ncc2c(c1F)OCC2)c1cnn(Cc2ccc(Cn3ccccc3=O)cc2)c1 [Compound 395],> 10 µM,1.68 nM,> 10 µM,–,–,–
Cc1cc(C)n(Cc2ccc(Cn3cc(C(=O)NCc4ccc(C(=N)N)cc4)cn3)cc2)n1 [Compound 366],> 10 µM,0.07 nM,> 10 µM,–,–,–
COc1cc(Cn2cc(C(=O)NCc3ccc(C(=N)N)cc3)cn2)cc(OC)c1C(=O)C1CC1 [Compound 371],> 10 µM,> 100 nM,> 10 µM,–,–,–
COCc1nn(Cc2ccc(Cn3ccccc3=O)cc2)cc1C(=O)NCc1ncc2ccn(C)c2c1F [Compound 363],> 10 µM,2.14 nM,> 10 µM,–,–,–
Cc1cc(N)nc(C)c1CNC(=O)c1cc(Cc2ccc(Cn3ccccc3=O)cc2)ccn1 [Compound 13],> 10 µM,–,> 10 µM,–,–,0.516 nM
Cc1cc(N)nc(C)c1CNC(=O)c1nnn(Cc2ccc(Cn3ccccc3=O)cc2)n1 [Compound 55],> 10 µM,0.16 nM,> 10 µM,–,–,–
O=C(NCc1ncc2cc[nH]c2c1F)c1cn(Cc2ccc(Cn3ccccc3=O)cc2)nc1C(F)(F)F [Compound 357],> 10 µM,1.9 nM,> 10 µM,–,–,–
COc1ccc(F)c(CNC(=O)c2cn(Cc3ccc(Cn4cc(F)ccc4=O)cc3)nc2C2CC2(F)F)c1F (stereo not drawn) [Compound 218],> 10 µM,2.16 nM,> 10 µM,–,–,–
COCc1nn(Cc2ccc(Cn3ccccc3=O)cc2)cc1C(=O)NCc1c(C)cn2cncc2c1C [Compound 147],> 10 µM,–,> 10 µM,–,–,1.57 nM
N=C(N)c1ccc(CNC(=O)c2cnn(Cc3ccc(CC4CC4)nc3)c2)cc1 [Compound 373],> 10 µM,0.56 nM,> 10 µM,–,–,–
COc1ccc(F)c(CNC(=O)c2cn(Cc3ccc(Cn4ccccc4=O)cc3)nc2COCCN(C)C)c1F [Compound 222],> 10 µM,1.94 nM,> 10 µM,–,–,–
